Patent US7122550B2, “Protein kinase inhibitors” (Cytopia Pty Ltd, priority 2002, dated 2006)

Key:
Format in all cases: cell-based
[1] = target: T1, Tel-Jak2 (Homo sapiens, UniProt O60674); experiment: Cellular growth inhibition assay (MTT), Tel-Jak2 transformed BaF3 cell line; settings: 40 hr incubation, read-out: Jak2: growth inhibitory activity (>50%) in transformed cell line Tel-Jak2
T1 construct: The regions encompassing the kinase domains of JAK2 (nucleotides 2994–3914); TEL (ETV6, human P41212) N-terminal part encoded by nucleotides 1-487 of TEL; expressed in transfected cells; host or cells: BaF3 (murine) bearing pTET-off, transfected with pTELJAK2 (pTRE2 vector); the other entry of the earlier key: ETV6 (P41212, Transcription factor ETV6)
Text: (§1) The coding region encompassing nucleotides 1–487 of TELwas amplified by PCR using the oligonucleotides 5TEL (5′-GGAGGATCCTGATCTCTCTCGCTGTGAGAC-3′) and 3TEL (5′-AGGC GTCGACTTCTTCTTCATGGTTCTG-3′) and U937 mRNA as template. A BamHI site was present into the 5TEL Primer, a SalI site was incorporated into the 3TEL primer. The regions encompassing the kinase domains of JAK2 (nucleotides 2994–3914; JAK2F 5′-ACGC GTCGACGGTGCCTTTGAAGACCGGGAT-3′; JAK2R 5′-ATAGTTTAGCGGCCGCTCAGAATGAAGGTCATTT-3′) and JAK3 (nucleotides 2520–3469; JAK3F 5′-GAAGTCGACTATGCCTGCCAAGACCCCACGATCTT-3′; JAK3R 5′-GGATCTAGACTATGAAAAGGACAGGGAGTGGTGTTT-3′) were generated by PCR using Taq DNA Polymerase (Gibco/BRL) and U937 mRNA as template. A SalI site was incorporated into the forward primer of JAK2 and JAK3, a NotI site was incorporated into the JAK2 reverse primer and a Xba I site was added to the reverse primer of JAK3.
(§2) A TEL/Jak2 fusion was generated by digestion of the TELPCR product with BamHI/SalI, digestion of the JAK2 PCR product with SalI/NotI followed by ligation and subcloning into the mammalian expression Vector pTRE 2 (Clontech) digested with BamHI-NotI (pTELJAK2). For JAK3 SalI/NotI cleaved kinase domain PCR product was ligated with BamHI/SalI cleaved TELproduct followed by ligation into BamHI/NotI cleaved pTRE2 (pTELJAK3).
(§3) The growth factor dependent myelomonocytic cell line BaF3 bearing the pTET-off plasmid (Clontech) was transfected with either pTELJAK2 or pTELJAK3 and the cells selected for factor independent growth. BaF 3 wild type cells were cultured in DMEM 10% FCS, 10% WEHI 3B conditioned medium. BaF3 TELJAK cells were cultured in DMEM 10% Tet-System Approved FBS (without WEHI 3B conditioned medium).
(§4) Cell suspensions were prepared by harvesting cells from culture. (Cells used in this test should be in later log phase growth and high viability.) Cells were diluted in correct growth medium to 1.1×final concentration (from 50000 cell/mL to 200,000 cell/mL, depending on cell line).
(§5) Compounds to be tested were added (10 μL, 10×final concentration) to a flat bottom 96-well plate. The cellular suspension (90 μL per well) was added, and the plate incubated for 40 hr at 37° C., 5% CO2. MTT (20 μL per well, 5 mg/mL in PBS) was added and the plates were returned to the incubator for a further 6 hours. Lysis buffer (100 μL per well, 10% SDS, 0.01N HCl) was added and the plate stored in the incubator overnight. The plate was then read at 590 nm.

[2] = target: T2, Tel-Jak3 (Homo sapiens, UniProt P52333); experiment: Cellular growth inhibition assay (MTT), Tel-Jak3 transformed BaF3 cell line; settings: 40 hr incubation, read-out: Jak3: growth inhibitory activity (>50%) in transformed cell line Tel-Jak3
T2 construct: TEL (ETV6, human P41212) N-terminal part encoded by nucleotides 1-487 of TEL; expressed in transfected cells; host or cells: BaF3 (murine) bearing pTET-off, transfected with pTELJAK3 (pTRE2 vector); the other entry of the earlier key: ETV6 (P41212, Transcription factor ETV6)
Text: as §1, §2, §3, §4, §5

[3] = tested on: DU145; experiment: Cellular growth inhibition assay (MTT), DU145 cells; settings: Homo sapiens, DU-145, 40 hr incubation, read-out: DU145: growth inhibitory activity
Protocol: as §4, §5

T1 sequence (O60674 with tags, fused parts or gaps): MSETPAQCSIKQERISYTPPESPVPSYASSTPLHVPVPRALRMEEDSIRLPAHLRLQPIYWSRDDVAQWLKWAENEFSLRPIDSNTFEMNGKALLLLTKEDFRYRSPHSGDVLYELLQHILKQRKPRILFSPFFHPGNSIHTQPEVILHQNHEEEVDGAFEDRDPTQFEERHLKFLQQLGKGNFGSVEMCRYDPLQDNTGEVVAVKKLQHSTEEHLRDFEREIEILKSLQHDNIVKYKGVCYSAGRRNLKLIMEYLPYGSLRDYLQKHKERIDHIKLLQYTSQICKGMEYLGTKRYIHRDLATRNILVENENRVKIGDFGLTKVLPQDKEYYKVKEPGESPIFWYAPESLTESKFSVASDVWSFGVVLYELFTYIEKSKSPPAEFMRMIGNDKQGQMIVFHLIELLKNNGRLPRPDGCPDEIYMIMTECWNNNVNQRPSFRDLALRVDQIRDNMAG
T2 sequence (P52333 with tags, fused parts or gaps): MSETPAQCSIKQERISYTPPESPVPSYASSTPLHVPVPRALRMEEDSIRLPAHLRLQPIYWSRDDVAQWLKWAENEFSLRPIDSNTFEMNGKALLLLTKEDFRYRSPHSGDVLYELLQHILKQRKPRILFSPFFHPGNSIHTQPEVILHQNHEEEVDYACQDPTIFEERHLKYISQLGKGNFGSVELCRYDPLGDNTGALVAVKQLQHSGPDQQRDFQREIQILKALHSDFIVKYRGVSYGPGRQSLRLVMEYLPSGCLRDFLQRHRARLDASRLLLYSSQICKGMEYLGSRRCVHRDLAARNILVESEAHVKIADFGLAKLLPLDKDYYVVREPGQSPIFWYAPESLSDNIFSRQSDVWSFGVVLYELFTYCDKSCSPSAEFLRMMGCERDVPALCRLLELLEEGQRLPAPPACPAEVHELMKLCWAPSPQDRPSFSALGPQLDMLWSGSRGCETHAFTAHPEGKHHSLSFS

Compound | inhibition at 50 µM [1] | inhibition at 50 µM [2] | inhibition at 50 µM [3]
COc1cc(-c2cncc(NCc3ccc(Cl)c(Cl)c3)n2)ccc1O [Chemistry 139] | > 50% | > 50% | < 50%
COc1cc(-c2cncc(NC(C)c3ccc(NCc4cccnc4)cc3)n2)ccc1O (stereo not drawn) [Chemistry 320] | > 50% | > 50% | < 50%
COc1cc(-c2cncc(NC(C)c3ccc(-n4ccnc4)cc3)n2)ccc1O (stereo not drawn) [Chemistry 186] | > 50% | > 50% | < 50%
COc1ccc([C@H](C)Nc2cncc(-c3ccc(O)c(OC)c3)n2)cc1 [Chemistry 117] | > 50% | > 50% | < 50%
COc1cc(-c2cncc(Nc3cc(F)ccc3C)n2)ccc1O [Chemistry 144] | > 50% | > 50% | < 50%
COc1cc(-c2cncc(N(C)[C@@H](C)c3ccccc3)n2)ccc1O [Chemistry 142] | > 50% | > 50% | < 50%
COc1cc(-c2cncc(NC(C)c3ccc(NC(=O)c4ccncc4)cc3)n2)ccc1O (stereo not drawn) [Chemistry 279] | > 50% | > 50% | > 50%
C[C@H](Nc1cncc(-c2ccc(NS(=O)(=O)c3ccccc3)cc2)n1)c1ccccc1 [Chemistry 226] | > 50% | > 50% | > 50%
COc1cc(-c2cncc(N(C)Cc3ccccc3)n2)ccc1O [Chemistry 137] | > 50% | > 50% | < 50%
COc1cc(-c2cncc(NC(C)c3ccc(C#N)cc3)n2)ccc1O (stereo not drawn) [Chemistry 303] | > 50% | > 50% | < 50%
COc1cc(-c2cncc(NC(C)c3ccc(C(=O)O)cc3)n2)ccc1O (stereo not drawn) [Chemistry 324] | < 50% | < 50% | < 50%
COc1cc(-c2cncc(NC(C)c3ccc(-c4cccnc4)cc3)n2)ccc1O (stereo not drawn) [Chemistry 270] | > 50% | > 50% | > 50%
COc1cc(-c2cncc(NC(C)c3cccnc3)n2)ccc1O (stereo not drawn) [Chemistry 187] | > 50% | > 50% | > 50%
COc1cc(-c2cncc(NC(C)c3ccc(C(=O)NCCN(C)C)cc3)n2)ccc1O (stereo not drawn) [Chemistry 352] | > 50% | > 50% | < 50%
COc1cc(-c2cncc(NC(C)c3ccc(NC(=O)C4CCCN4C(=O)OC(C)(C)C)cc3)n2)ccc1O (stereo not drawn) [Chemistry 281] | > 50% | > 50% | > 50%
COc1cc(-c2cncc(NC(C)c3ccc(C(=O)NCc4cccnc4)cc3)n2)ccc1O (stereo not drawn) [Chemistry 372] | > 50% | > 50% | < 50%
COc1cc(-c2cncc(NC(C)c3cccc(NC(=O)c4cccnc4)c3)n2)ccc1O (stereo not drawn) [Chemistry 268] | > 50% | > 50% | > 50%
C[C@H](Nc1cncc(-c2ccc(NS(C)(=O)=O)cc2)n1)c1ccccc1 [Chemistry 192] | > 50% | > 50% | > 50%
COc1cc(-c2cncc(NC(C)c3ccc(NCCN4CCN(C)CC4)cc3)n2)ccc1O (stereo not drawn) [Chemistry 318] | > 50% | > 50% | < 50%
COc1cc(-c2cncc(NC(C)c3ccc(C(=O)NCCO)cc3)n2)ccc1O (stereo not drawn) [Chemistry 374] | > 50% | > 50% | < 50%
